This is an account of results in patent US20250136619A1, “HETEROBIFUNCTIONAL COMPOUNDS AND THEIR USE IN TREATING DISEASE” (HALDA THERAPEUTICS OPCO, INC., priority 2021, published 2025).

The target of assay [1] is BTK (Homo sapiens (Human), UniProt Q06187). The assay can be described thus: KdELECT assay for binding affinity to BTK. The gist of the method:
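Competition binding of test compound against bead-immobilized biotinylated ligand; kinase as T7 phage fusion or HEK-293-expressed DNA-tagged protein. 11-point 3-fold dilution, 0.9% DMSO final, 1 h room temperature with shaking. Bound kinase eluted with 0.5 μM non-biotinylated ligand and quantified by qPCR; Kd derived.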

Assay [2] addresses BRD4-BD1 (Homo sapiens (Human), UniProt O60885). The assay can be described thus: bromoKdELECT assay for binding affinity to BRD4-BD1. On the procedure:
(§1) Compounds were tested using a bromoKdELECT assay. T7 phage strains displaying bromodomains were grown in parallel in 24-well blocks in an E. coli host derived from the BL21 strain. E. coli were grown to log-phase and infected with T7 phage from a frozen stock (multiplicity of infection=0.4) and incubated with shaking at 32° C. until lysis (90-150 minutes). The lysates were centrifuged (5,000×g) and filtered (0.2 μm) to remove cell debris. Streptavidin-coated magnetic beads were treated with biotinylated small molecule or acetylated peptide ligands for 30 minutes at room temperature to generate affinity resins for bromodomain assays. The liganded beads were blocked with excess biotin and washed with blocking buffer (SeaBlock (Pierce), 1% BSA, 0.05% Tween 20, 1 mM DTT) to remove unbound ligand and to reduce nonspecific phage binding. Binding reactions were assembled by combining bromodomains, liganded affinity beads, and test compounds in 1×binding buffer (17% SeaBlock, 0.33×PBS, 0.04% Tween 20, 0.02% BSA, 0.004% Sodium azide, 7.4 mM DTT). Test compounds were prepared as 1000X stocks in 100% DMSO. Kds were determined using an 11-point 3-fold compound dilution series with one DMSO control point. All compounds for Kd measurements are distributed by acoustic transfer (non-contact dispensing) in 100% DMSO. The compounds were then diluted directly into the assays such that the final concentration of DMSO was 0.09%. All reactions performed in polypropylene 384-well plates. Each was a final volume of 0.02 ml. The assay plates were incubated at room temperature with shaking for 1 hour and the affinity beads were washed with wash buffer (1×PBS, 0.05% Tween 20). The beads were then resuspended in elution buffer (1×PBS, 0.05% Tween 20, 2 μM non-biotinylated affinity ligand) and incubated at room temperature with shaking for 30 minutes. The bromodomain concentration in the eluates was measured by qPCR.

The target in assay [3] is BRD4-BD2 (Homo sapiens (Human), UniProt O60885). The assay can be described thus: bromoKdELECT assay for binding affinity to BRD4-BD2. The method, then: as §1
Assay [4] deals with KIF11 (Homo sapiens (Human), UniProt P52732). The assay can be described thus: Enzyme-coupled ATPase assay for inhibition of KIF11. As to conditions: KIF11 ATPase rate, 1 mM ATP. Format: biochemical. On the procedure:
The ATPase rate for Kif11 was monitored using an enzyme-coupled assay. Porcine brain microtubules (Cat #MT002) were purchased from Cytoskeleton (Denver, CO) and polymerized as per manufacturer's instructions and stored at 1 mg/ml at −80° C. GST-tagged Kif11/Eg5 (Cat #EG01-XL) and the Kinesin ELIPA Biochem Kit (Cat #BK060) was also purchased from Cytoskeleton. Taxol, microtubules, 7-methylthioguanosine (MESG), and purine nucleoside phosphorylase (PNP) were added to final concentrations of […], 0.05 mg/mL, […], 1U/m, 1 mM in EPLIA Reaction Buffer and allowed to incubate at room temperature for 15 minutes under rocking. Kif11 was then added at a final concentration of […] and allowed to incubate at room temperature for an additional 15 minutes. Master mix ([…]) was added to a black 384-well plate (Corning 3575), to which […] of DMSO or compound were added to appropriate wells. Plates were incubated at room temperature for 2 hours. ATPase reactions were initiated by addition of 1 mM ATP and monitored by OD340 every 1 minute over the course of 2 hours. The rate of the reaction was taken from the linear part of the resulting curve. IC50 was determined by plotting inhibitor concentration v. ATPase rate.

Assay [5] deals with CDK1 (Homo sapiens (Human), UniProt P06493). The assay can be described thus: KdELECT assay for binding affinity to CDK1. The method, then:
Compounds were tested using a KdELECT assay. Kinase-tagged T7 phage strains were prepared in an E. coli host derived from the BL21 strain. E. coli were grown to log-phase and infected with T7 phage and incubated with shaking at 32° C. until lysis. The lysates were centrifuged and filtered to remove cell debris. The remaining kinases were produced in HEK-293 cells and subsequently tagged with DNA for qPCR detection. Streptavidin-coated magnetic beads were treated with biotinylated small molecule ligands for 30 minutes at room temperature to generate affinity resins for kinase assays. The liganded beads were blocked with excess biotin and washed with blocking buffer (SeaBlock (Pierce), 1% BSA, 0.05% Tween 20, 1 mM DTT) to remove unbound ligand and to reduce non-specific binding. Binding reactions were assembled by combining kinases, liganded affinity beads, and test compounds in 1×binding buffer (20% SeaBlock, 0.17×PBS, 0.05% Tween 20, 6 mM DTT). Test compounds were prepared as 111X stocks in 100% DMSO. Kd values were determined using an 11-point 3-fold compound dilution series with three DMSO control points. All compounds for Kd measurements are distributed by acoustic transfer (non-contact dispensing) in 100% DMSO. The compounds were then diluted directly into the assays such that the final concentration of DMSO was 0.9%. All reactions performed in polypropylene 384-well plate. Each was a final volume of 0.02 mL. The assay plates were incubated at room temperature with shaking for 1 hour and the affinity beads were washed with wash buffer (1×PBS, 0.05% Tween 20). The beads were then re-suspended in elution buffer (1×PBS, 0.05% Tween 20, 0.5 μM nonbiotinylated affinity ligand) and incubated at room temperature with shaking for 30 minutes. The kinase concentration in the eluates was measured by qPCR.

Chain of BTK (Q06187 whole entry, the tested form may be a part): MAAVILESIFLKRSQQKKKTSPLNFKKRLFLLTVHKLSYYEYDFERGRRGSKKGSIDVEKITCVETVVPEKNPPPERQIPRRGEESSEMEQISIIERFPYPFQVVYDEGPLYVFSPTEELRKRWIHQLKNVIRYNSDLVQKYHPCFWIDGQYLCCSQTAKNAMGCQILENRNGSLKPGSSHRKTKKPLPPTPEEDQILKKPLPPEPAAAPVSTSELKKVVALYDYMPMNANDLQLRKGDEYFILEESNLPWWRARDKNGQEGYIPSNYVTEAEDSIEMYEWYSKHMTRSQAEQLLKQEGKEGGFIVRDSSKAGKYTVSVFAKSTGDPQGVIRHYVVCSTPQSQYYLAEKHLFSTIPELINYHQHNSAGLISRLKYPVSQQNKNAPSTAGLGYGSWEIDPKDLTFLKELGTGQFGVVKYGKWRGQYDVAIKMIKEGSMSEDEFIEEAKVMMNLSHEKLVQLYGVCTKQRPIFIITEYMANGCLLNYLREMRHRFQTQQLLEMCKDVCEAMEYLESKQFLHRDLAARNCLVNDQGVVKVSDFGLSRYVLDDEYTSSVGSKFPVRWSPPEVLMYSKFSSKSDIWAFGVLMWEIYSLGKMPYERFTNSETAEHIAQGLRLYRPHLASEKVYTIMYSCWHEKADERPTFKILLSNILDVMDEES
Chain of KIF11 (P52732 1-368): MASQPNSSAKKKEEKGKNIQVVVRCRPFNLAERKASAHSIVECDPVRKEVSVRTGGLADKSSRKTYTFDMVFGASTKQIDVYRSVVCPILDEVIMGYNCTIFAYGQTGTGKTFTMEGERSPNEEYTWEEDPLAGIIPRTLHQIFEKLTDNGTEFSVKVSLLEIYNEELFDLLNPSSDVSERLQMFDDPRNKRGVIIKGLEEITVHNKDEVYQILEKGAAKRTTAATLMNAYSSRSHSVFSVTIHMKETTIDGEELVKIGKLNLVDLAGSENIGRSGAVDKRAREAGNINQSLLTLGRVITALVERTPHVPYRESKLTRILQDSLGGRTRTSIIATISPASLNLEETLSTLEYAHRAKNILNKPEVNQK
Chain of CDK1 (P06493 whole entry): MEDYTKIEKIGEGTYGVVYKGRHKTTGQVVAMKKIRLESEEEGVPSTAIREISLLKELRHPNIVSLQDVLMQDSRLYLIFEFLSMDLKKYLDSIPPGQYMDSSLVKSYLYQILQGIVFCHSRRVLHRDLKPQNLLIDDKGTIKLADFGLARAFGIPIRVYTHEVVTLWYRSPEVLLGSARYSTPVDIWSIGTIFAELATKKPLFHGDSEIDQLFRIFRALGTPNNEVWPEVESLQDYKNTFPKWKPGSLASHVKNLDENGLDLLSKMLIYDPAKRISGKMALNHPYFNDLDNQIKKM

`Cc1sc2c(c1C)C(c1ccc(Cl)cc1)=N[C@@H](CC(=O)NCCCCCCCC/C=C/C(=O)N1CCC[C@@H](n3nc(-c4ccc(Oc5ccccc5)cc4)c4c(N)ncnc43)C1)c1nnc(C)n1-2` [Compound I-28, N—[(E)-11-[(3R)-3-[4-amino-3-(4-phenoxyphenyl)pyrazolo[3,4-d]pyrimidin-1-yl]-1-piperidyl]-11-oxo-undec-9-enyl]-2-[(9S)-7-(4-chlorophenyl)-4,5,13-trimethyl-3-thia-1,8,11,12-tetrazatricyclo[8.3.0.0^2,6]trideca-2 (6),4,7,10,12-pentaen-9-yl]acetamide]: the Kd in assay [1] is 500 to 2500 nM; in assay [2], over 2500 nM; in assay [3], 500 to 2500 nM.

On to `Cc1sc2c(c1C)C(c1ccc(Cl)cc1)=N[C@@H](CC(=O)NCCOCCOCCOCCOCCOCCOC/C=C/C(=O)N1CCC[C@@H](n3nc(-c4ccc(Oc5ccccc5)cc4)c4c(N)ncnc43)C1)c1nnc(C)n1-2` [Compound I-26, N-[2-[2-[2-[2-[2-[2-[(E)-4-[(3R)-3-[4-amino-3-(4-phenoxyphenyl)pyrazolo[3,4-d]pyrimidin-1-yl]-1-piperidyl]-4-oxo-but-2-enoxy]ethoxy]ethoxy]ethoxy]ethoxy]ethoxy]ethyl]-2-[(9S)-7-(4-chlorophenyl)-4,5, 13-trimethyl-3-thia-1,8, 11,12-tetrazatricyclo[8.3.0.0^2,6]trideca-2 (6),4,7,10, 12-pentaen-9-yl]acetamide], for which the values for the Kd in assay [1], in assay [2] and in assay [3] were under 50 nM, 50 to 500 nM and under 50 nM, respectively.

Turning to `CN(C/C=C/C(=O)N1CCC[C@@H](n2nc(-c3ccc(Oc4ccccc4)cc3)c3c(N)ncnc32)C1)CCOCCOCCOCCOCCOCCOCCON(C)C(=O)N1N=C(c2cc(F)ccc2F)SC1(CCCN)c1ccccc1` (some centres unmarked) [Compound I-52], in assay [1], the Kd was under 50 nM. In assay [4], this compound displayed an IC50 of under 50 nM.

With `NC(=O)c1c(F)cccc1Nc1nc(Nc2ccc(S(=O)(=O)NCCOCCOCCOCCOCCOCCOC/C=C/C(=O)N3CCC[C@@H](n4nc(-c5ccc(Oc6ccccc6)cc5)c5c(N)ncnc54)C3)cc2)ncc1Br` [Compound I-15], the Kd was under 50 nM in assay [1] and 50 to 500 nM in assay [5].

On to `CN(OCCOCCOCCOCCOCCOC/C=C/C(=O)N1CCC[C@@H](n2nc(-c3ccc(Oc4ccccc4)cc3)c3c(N)ncnc32)C1)C(=O)N1N=C(c2cc(F)ccc2F)SC1(CCCN)c1ccccc1` (some centres unmarked) [Compound I-49], for which the IC50 in assay [4] fell in the range of 50 to 500 nM.

For `NC(=O)c1c(F)cccc1Nc1nc(Nc2ccc(S(=O)(=O)NCCOCCOC/C=C/C(=O)N3CCC[C@@H](n4nc(-c5ccc(Oc6ccccc6)cc5)c5c(N)ncnc54)C3)cc2)ncc1Br` [Compound I-13, 2-[[2-[4-[2-[2-[(E)-4-[(3R)-3-[4-amino-3-(4-phenoxyphenyl)pyrazolo[3,4-d]pyrimidin-1-yl]-1-piperidyl]-4-oxo-but-2-enoxy]ethoxy]ethylsulfamoyl]anilino]-5-bromo-pyrimidin-4-yl]amino]-6-fluoro-benzamide], the Kd in assay [1] was in the range of 50 to 500 nM; in assay [5] it was 500 to 2500 nM.

For `Cc1sc2c(c1C)C(c1ccc(Cl)cc1)=N[C@@H](CC(=O)NCCCN1CCN(CCCN(C)C/C=C/C(=O)N3CCC[C@@H](n4nc(-c5ccc(Oc6ccccc6)cc5)c5c(N)ncnc54)C3)CC1)c1nnc(C)n1-2` [Compound I-29, N-[3-[4-[3-[[(E)-4-[(3R)-3-[4-amino-3-(4-phenoxyphenyl)pyrazolo[3,4-d]pyrimidin-1-yl]-1-piperidyl]-4-oxo-but-2-enyl]-methyl-amino]propyl]piperazin-1-yl]propyl]-2-[(9S)-7-(4-chlorophenyl)-4,5, 13-trimethyl-3-thia-1,8, 11,12-tetrazatricyclo[8.3.0.0^2,6]trideca-2 (6),4,7,10,12-pentaen-9-yl]acetamide], the Kd in assay [1], in assay [2] and in assay [3] was under 50 nM each time.

For the compound `Cc1sc2c(c1C)C(c1ccc(Cl)cc1)=N[C@@H](CC(=O)NCCOCCOC/C=C/C(=O)N1CCC[C@@H](n3nc(-c4ccc(Oc5ccccc5)cc4)c4c(N)ncnc43)C1)c1nnc(C)n1-2` [Compound I-24, N-[2-[2-[(E)-4-[(3R)-3-[4-amino-3-(4-phenoxyphenyl)pyrazolo[3,4-d]pyrimidin-1-yl]-1-piperidyl]-4-oxo-but-2-enoxy]ethoxy]ethyl]-2-[(9S)-7-(4-chlorophenyl)-4,5,13-trimethyl-3-thia-1,8,11,12-tetrazatricyclo[8.3.0.02.6]trideca-2 (6),4,7,10,12-pentaen-9-yl]acetamide], the Kd in assay [1] was under 50 nM; in assay [2], 50 to 500 nM; in assay [3], under 50 nM.

`CN(C/C=C/C(=O)N1CCC[C@@H](n2nc(-c3ccc(Oc4ccccc4)cc3)c3c(N)ncnc32)C1)CCOCCOCCOCCOCCOCCOCCOCCOCCON(C)C(=O)N1N=C(c2cc(F)ccc2F)SC1(CCCN)c1ccccc1` (some centres unmarked) [Compound I-54] came in with an IC50 in assay [4] of under 50 nM.

The compound `CN(C/C=C/C(=O)N1CCC[C@@H](n2nc(-c3ccc(Oc4ccccc4)cc3)c3c(N)ncnc32)C1)CCOCCOCCOCCOCCON(C)C(=O)N1N=C(c2cc(F)ccc2F)SC1(CCCN)c1ccccc1` (some centres unmarked) [Compound I-50] yielded an IC50 in assay [4] of under 50 nM.

Turning to `CCc1cnn2c(NCc3ccc(OCCOCCOCCOCCOCCOCCOCCOCCOCCOC/C=C/C(=O)N4CCC[C@@H](n5nc(-c6ccc(Oc7ccccc7)cc6)c6c(N)ncnc65)C4)nc3)cc(N3CCCC[C@H]3CCO)nc12` [Compound I-47], in assay [5], the Kd is over 2500 nM.

In the case of `CN(C/C=C/C(=O)N1CCC[C@@H](n2nc(-c3ccc(Oc4ccccc4)cc3)c3c(N)ncnc32)C1)CCCN1CCN(CCCNS(=O)(=O)c2ccc(Nc3ncc(Br)c(Nc4cccc(F)c4C(N)=O)n3)cc2)CC1` [Compound I-18, 2-[[2-[4-[3-[4-[3-[[(E)-4-[(3R)-3-[4-amino-3-(4-phenoxyphenyl)pyrazolo[3,4-d]pyrimidin-1-yl]-1-piperidyl]-4-oxo-but-2-enyl]-methyl-amino]propyl]piperazin-1-yl]propylsulfamoyl]anilino]-5-bromo-pyrimidin-4-yl]amino]-6-fluoro-benzamide], the Kd in assay [1] and in assay [5] was under 50 nM throughout.

Take `CCc1cnn2c(NCc3ccc(OCCOCCOCCOCCOCCN(C)C/C=C/C(=O)N4CCC[C@@H](n5nc(-c6ccc(Oc7ccccc7)cc6)c6c(N)ncnc65)C4)nc3)cc(N3CCCC[C@H]3CCO)nc12` [Compound I-43]: the Kd in assay [1] was under 50 nM; in assay [5], over 2500 nM.

Usually Kd stands for the constant that tells how readily two partners part at equilibrium. As usually defined, the IC50 is the point on the concentration scale where inhibition reaches its midpoint. A low value points to greater potency.
